Measured values from patent publication US7582610B2, “Melanocortin receptor templates, peptides and use thereof” (priority 2003, dated 2009).
One block for each compound: values may come before it. Where a SMILES comes first, the peptide text is derived from it. Bridges are numbered along the chain shown (N, C = ends). [ ]: non-standard residue; d: D form. Nle = CCCC[C@H](N)C(=O)O; Dap = NC[C@H](N)C(=O)O

Experiments:
mMC3R = mMC3R (Mus musculus, UniProt P33033); experiment: Functional bioassay, CRE/β-galactosidase reporter in HEK-293 cells stably expressing mMC3R; conditions: for pharmacology in words at mMC3R: slight agonist = some stimulatory response at 100 μM, not enough to determine an EC50
Method: (§1) 5,000 to 15,000 post transfection cells were plated into 96 well Primera plates (Falcon) and incubated overnight. […] The assay media was aspirated and 50 μL of lysis buffer (250 mM Tris-HCl pH=8.0 and 0.1% Triton X-100) was added. The plates were stored at −80° overnight.
(§2) The plates containing the cell lysates were thawed the following day. Aliquots of 10 μL were taken from each well and transferred to another 96-well plate for relative protein determination. To the cell lysate plates, 40 μL phosphate-buffered saline with 0.5% BSA was added to each well. Subsequently, 150 μL substrate buffer (60 mM sodium phosphate, 1 mM MgCl2, 10 mM KCl, 5 mM β-mercaptoethanol, 200 mg/100 mL ONPG) was added to each well and the plates were incubated at 37°.
(§3) The sample absorbance, OD405, was measured using a 96 well plate reader (Molecular Devices). The relative protein was determined by adding 200 μL 1:5 dilution Bio Rad G250 protein dye:water to the 10 μL cell lysate sample taken previously, and the OD595 was measured on a 96 well plate reader (Molecular Devices). Data points were normalized both to the relative protein content and non-receptor dependent forskolin stimulation.
(§4) For data analysis, EC50 and pA2 values represent the mean of duplicate experiments performed in triplet, quadruplet or more independent experiments.

mMC4R = mMC4R (Mus musculus, UniProt P56450); experiment: Functional bioassay, CRE/β-galactosidase reporter in HEK-293 cells stably expressing mMC4R; conditions: for pharmacology in words at mMC4R: slight agonist = some stimulatory response at 100 μM, not enough to determine an EC50
Method: as §1, §2, §3, §4

mMC1R = mMC1R (Mus musculus, UniProt Q01727); experiment: Functional bioassay, CRE/β-galactosidase reporter in HEK-293 cells stably expressing mMC1R
Method: as §1, §2, §3, §4

mMC5R = mMC5R (Mus musculus, UniProt P41149); experiment: Functional bioassay, CRE/β-galactosidase reporter in HEK-293 cells stably expressing mMC5R; conditions: for pharmacology in words at mMC5R: slight agonist = some stimulatory response at 100 μM, not enough to determine an EC50
Chain of mMC5R (P41149 whole entry): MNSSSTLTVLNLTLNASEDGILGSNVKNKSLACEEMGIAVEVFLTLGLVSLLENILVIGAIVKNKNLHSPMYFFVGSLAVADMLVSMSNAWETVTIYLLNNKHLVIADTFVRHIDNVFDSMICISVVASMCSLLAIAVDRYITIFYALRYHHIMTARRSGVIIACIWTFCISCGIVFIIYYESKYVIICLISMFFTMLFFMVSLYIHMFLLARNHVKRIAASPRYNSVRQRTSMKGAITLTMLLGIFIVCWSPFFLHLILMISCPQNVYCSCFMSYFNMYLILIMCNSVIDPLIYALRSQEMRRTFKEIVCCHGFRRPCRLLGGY
Method: as §1, §2, §3, §4

Chain of mMC4R (P56450 whole entry): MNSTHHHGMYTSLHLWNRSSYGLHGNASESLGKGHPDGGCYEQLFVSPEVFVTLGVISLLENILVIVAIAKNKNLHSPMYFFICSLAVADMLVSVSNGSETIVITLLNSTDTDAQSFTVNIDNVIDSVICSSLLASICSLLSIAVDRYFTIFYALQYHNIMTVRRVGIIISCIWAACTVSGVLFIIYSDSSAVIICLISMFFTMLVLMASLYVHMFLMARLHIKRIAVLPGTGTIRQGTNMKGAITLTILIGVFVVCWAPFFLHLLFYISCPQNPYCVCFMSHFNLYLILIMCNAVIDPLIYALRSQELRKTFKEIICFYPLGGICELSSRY
Chain of mMC3R (P33033 whole entry): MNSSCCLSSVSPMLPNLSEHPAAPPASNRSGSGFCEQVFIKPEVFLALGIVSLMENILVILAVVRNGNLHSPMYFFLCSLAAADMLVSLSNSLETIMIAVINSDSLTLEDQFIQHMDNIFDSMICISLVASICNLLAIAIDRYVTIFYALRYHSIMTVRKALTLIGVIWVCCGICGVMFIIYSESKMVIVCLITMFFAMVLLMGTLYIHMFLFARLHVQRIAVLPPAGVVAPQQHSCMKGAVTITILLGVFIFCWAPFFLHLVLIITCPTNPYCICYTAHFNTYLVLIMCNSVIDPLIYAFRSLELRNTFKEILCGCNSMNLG
Chain of mMC1R (Q01727 whole entry): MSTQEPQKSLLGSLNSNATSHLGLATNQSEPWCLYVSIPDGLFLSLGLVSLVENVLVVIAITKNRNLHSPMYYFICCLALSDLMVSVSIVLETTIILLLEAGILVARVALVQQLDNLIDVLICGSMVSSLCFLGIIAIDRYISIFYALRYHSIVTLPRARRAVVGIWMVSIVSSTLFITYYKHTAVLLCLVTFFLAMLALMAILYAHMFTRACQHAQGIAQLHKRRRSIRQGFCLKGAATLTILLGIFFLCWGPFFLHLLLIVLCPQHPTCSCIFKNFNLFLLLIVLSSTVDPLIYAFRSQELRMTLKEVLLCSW

- EC50 (mMC3R): > 100 µM
- pharmacology in words at mMC3R (mMC3R): Slight Agonist
- Kb (mMC4R): 794 nM
- pharmacology in words at mMC4R (mMC4R): Partial agonist
SMILES: C[C@@H]1NC(=O)[C@H](CC(N)=O)NC(=O)[C@@H](Cc2ccccc2)NC(=O)[C@H](Cc2ccccc2)NC(=O)[C@H](CCCNC(=N)N)NC(=O)[C@@H](NC(=O)[C@@H](N)Cc2ccc(O)cc2)CSSC[C@@H](C(=O)N[C@@H](Cc2ccc(O)cc2)C(N)=O)NC(=O)[C@H](Cc2ccccc2)NC1=O [SEQ ID NO: 1, Tyr-c[Cys-Arg-Phe-DPhe-Asn-Ala-Phe-Cys]-Tyr] (H-YCRF[dF]NAFCY-NH2; disulfide 2-9)

SMILES: C[C@@H]1NC(=O)[C@H](C)NC(=O)[C@@H](NC(=O)[C@@H](N)Cc2ccc(O)cc2)CC(=O)NC[C@@H](C(=O)N[C@@H](Cc2ccc(O)cc2)C(N)=O)NC(=O)[C@H](Cc2ccccc2)NC(=O)[C@H](C)NC(=O)[C@H](CC(N)=O)NC(=O)[C@H](C)NC1=O [SEQ ID NO: 2, Tyr-c[Asp-Ala-Ala-Ala-Asn-Ala-Phe-Dpr]-Tyr] (H-YDAAANAF[Dap]Y-NH2; lactam 2-9)
- EC50 (mMC1R): > 100 µM
- EC50 (mMC3R): > 100 µM
- EC50 (mMC5R): > 100 µM
- EC50 (mMC4R): > 100 µM

SMILES: C[C@@H]1NC(=O)[C@H](CC(N)=O)NC(=O)[C@H](Cc2ccccc2)NC(=O)[C@H](Cc2ccccc2)NC(=O)[C@H](CCCNC(=N)N)NC(=O)[C@@H](NC(=O)[C@@H](N)Cc2ccc(O)cc2)CC(=O)NC[C@@H](C(=O)N[C@@H](Cc2ccc(O)cc2)C(N)=O)NC(=O)[C@H](Cc2ccccc2)NC1=O [SEQ ID NO: 3, Tyr-c[Asp-Arg-Phe-Phe-Asn-Ala-Phe-Dpr]-Tyr]
- Kb (mMC3R): 2000 nM
- EC50 (mMC5R): > 100 µM
- Kb (mMC4R): 1260 nM
- decrease in antagonist potency at mMC4R (mMC4R; compared with hAGRP(109-118)): 8 fold

- EC50 (mMC3R): > 100 µM
- EC50 (mMC5R): > 100 µM
- pharmacology in words at mMC4R (mMC4R): Partial agonist
SMILES: C[C@@H]1NC(=O)[C@H](CC(N)=O)NC(=O)[C@H](Cc2ccccc2)NC(=O)[C@H](CCCNC(=N)N)NC(=O)[C@H](Cc2c[nH]c3ccccc23)NC(=O)[C@@H](NC(=O)[C@@H](N)Cc2ccc(O)cc2)CC(=O)NC[C@@H](C(=O)N[C@@H](Cc2ccc(O)cc2)C(N)=O)NC(=O)[C@H](Cc2ccccc2)NC1=O [SEQ ID NO: 4, Tyr-c[Asp-Trp-Arg-Phe-Asn-AIa-Phe-Dpr]-Tyr] (H-YDWRFNAF[Dap]Y-NH2; lactam 2-9)

- pharmacology in words at mMC3R (mMC3R): Slight Agonist
SMILES: C[C@@H]1NC(=O)[C@H](CC(N)=O)NC(=O)[C@@H](Cc2ccccc2)NC(=O)[C@H](CCCNC(=N)N)NC(=O)[C@H](Cc2c[nH]c3ccccc23)NC(=O)[C@@H](NC(=O)[C@@H](N)Cc2ccc(O)cc2)CC(=O)NC[C@@H](C(=O)N[C@@H](Cc2ccc(O)cc2)C(N)=O)NC(=O)[C@H](Cc2ccccc2)NC1=O [SEQ ID NO: 5, Tyr-c[Asp-Trp-Arg-DPhe-Asn-Ala-Phe-Dpr]-Tyr] (H-YDWR[dF]NAF[Dap]Y-NH2; lactam 2-9)

- pharmacology in words at mMC3R (mMC3R): Slight agonist
SMILES: C[C@@H]1NC(=O)[C@H](CC(N)=O)NC(=O)[C@H](Cc2c[nH]c3ccccc23)NC(=O)[C@H](CCCNC(=N)N)NC(=O)[C@H](Cc2ccccc2)NC(=O)[C@@H](NC(=O)[C@@H](N)Cc2ccc(O)cc2)CC(=O)NC[C@@H](C(=O)N[C@@H](Cc2ccc(O)cc2)C(N)=O)NC(=O)[C@H](Cc2ccccc2)NC1=O [SEQ ID NO: 6, Tyr-c[Asp-Phe-Arg-Trp-Asn-Ala-Phe-Dpr]-Tyr] (H-YDFRWNAF[Dap]Y-NH2; lactam 2-9)

- Kb (mMC3R): 631 nM
- EC50 (mMC5R): > 100 µM
- Kb (mMC4R): 631 nM
SMILES: CCCC[C@H](NC(=O)[C@H](CO)NC(=O)[C@H](Cc1ccc(O)cc1)NC(=O)[C@H](CO)NC(C)=O)C(=O)N[C@@H](Cc1ccc(O)cc1)C(=O)N[C@H]1CC(=O)NC[C@@H](C(=O)N[C@@H](Cc2ccc(O)cc2)C(=O)N[C@@H](CCCCN)C(=O)N2CCC[C@H]2C(=O)N[C@H](C(N)=O)C(C)C)NC(=O)[C@H](Cc2ccccc2)NC(=O)[C@H](C)NC(=O)[C@H](CC(N)=O)NC(=O)[C@H](Cc2ccccc2)NC(=O)[C@H](Cc2ccccc2)NC(=O)[C@H](CCCNC(=N)N)NC1=O [SEQ ID NO: 11, Ac-Ser-Tyr-Ser-Nle-Tyr-c[Asp-Arg-Phe-Phe-Asn-Ala-Phe-Dpr]-Tyr-Lys-Pro-Val] (Ac-SYS[Nle]YDRFFNAF[Dap]YKPV-NH2; lactam 6-13)

- pharmacology in words at mMC1R (mMC1R; slight agonist = some stimulatory response at 100 μM, not enough to determine an EC50): Partial agonist
- EC50 (mMC3R): > 100 µM
- EC50 (mMC5R): > 100 µM
- EC50 (mMC4R): > 100 µM
SMILES: CCCC[C@H](NC(=O)[C@H](CO)NC(=O)[C@H](Cc1ccc(O)cc1)NC(=O)[C@H](CO)NC(C)=O)C(=O)N[C@@H](CCC(=O)O)C(=O)N[C@@H](Cc1ccccc1)C(=O)N[C@@H](Cc1ccccc1)C(=O)N[C@@H](CCCNC(=N)N)C(=O)NCC(=O)N[C@@H](CCCCN)C(=O)N1CCC[C@H]1C(=O)N[C@H](C(N)=O)C(C)C [SEQ ID NO: 13] (Ac-SYS[Nle]EFFRGKPV-NH2)

- EC50 (mMC3R): > 100 µM
- pharmacology in words at mMC5R (mMC5R): Slight agonist
- EC50 (mMC4R): > 100 µM
SMILES: CCCC[C@H](NC(=O)[C@H](CO)NC(=O)[C@H](Cc1ccc(O)cc1)NC(=O)[C@H](CO)NC(C)=O)C(=O)N[C@@H](CCC(=O)O)C(=O)N[C@@H](Cc1c[nH]cn1)C(=O)N[C@@H](CCCNC(=N)N)C(=O)N[C@@H](Cc1ccccc1)C(=O)N[C@H](Cc1ccccc1)C(=O)NCC(=O)N[C@@H](CCCCN)C(=O)N1CCC[C@H]1C(=O)N[C@H](C(N)=O)C(C)C [SEQ ID NO: 18, Ac-Ser-Tyr-Ser-Nle-Glu-His-Arg-Phe-DPhe-Gly-Lys-Pro-Val] (Ac-SYS[Nle]EHRF[dF]GKPV-NH2)

- pharmacology in words at mMC3R (mMC3R): Slight agonist
- pharmacology in words at mMC5R (mMC5R): Slight agonist
- EC50 (mMC4R): > 100 µM
SMILES: CCCC[C@H](NC(C)=O)C(=O)N[C@H]1CC(=O)NCCCC[C@@H](C(N)=O)NC(=O)[C@@H](Cc2ccccc2)NC(=O)[C@H](Cc2ccccc2)NC(=O)[C@H](CCCNC(=N)N)NC(=O)[C@H](Cc2c[nH]cn2)NC1=O [SEQ ID NO: 23, Ac-Nle-c[Asp-His-Arg-Phe-DPhe-Lys]] (Ac-[Nle]DHRF[dF]K-NH2; lactam 2-7)

- pharmacology in words at mMC3R (mMC3R): Partial agonist
SMILES: C[C@@H]1NC(=O)[C@H](CC(N)=O)NC(=O)[C@H](Cc2c[nH]c3ccccc23)NC(=O)[C@H](CCCNC(=N)N)NC(=O)[C@H](C)NC(=O)[C@H](Cc2c[nH]cn2)NC(=O)[C@@H](NC(=O)[C@@H](N)Cc2ccc(O)cc2)CC(=O)NC[C@@H](C(=O)N[C@@H](Cc2ccc(O)cc2)C(N)=O)NC(=O)[C@H](Cc2ccccc2)NC1=O [SEQ ID NO: 25]

- Kb (mMC3R): 63.1 nM
- pharmacology in words at mMC3R (mMC3R): Partial agonist
SMILES: C[C@@H]1NC(=O)[C@H](CC(N)=O)NC(=O)[C@H](Cc2c[nH]c3ccccc23)NC(=O)[C@H](CCCNC(=N)N)NC(=O)[C@@H](Cc2ccccc2)NC(=O)[C@@H]2CCCN2C(=O)[C@@H](NC(=O)[C@@H](N)Cc2ccc(O)cc2)CC(=O)NC[C@@H](C(=O)N[C@@H](Cc2ccc(O)cc2)C(N)=O)NC(=O)[C@H](Cc2ccccc2)NC1=O [SEQ ID NO: 28, Tyr-c[Asp-Pro-DPhe-Arg-Trp-Asn-Ala-Phe-Dpr]-Tyr] (H-YDP[dF]RWNAF[Dap]Y-NH2; lactam 2-10)

- Kb (mMC3R): 63.1 nM
- pharmacology in words at mMC3R (mMC3R): Partial agonist
SMILES: C[C@@H]1NC(=O)[C@H](CC(N)=O)NC(=O)[C@H](Cc2c[nH]c3ccccc23)NC(=O)[C@H](CCCNC(=N)N)NC(=O)[C@@H](Cc2ccccc2)NC(=O)[C@H](Cc2ccccc2)NC(=O)[C@@H](NC(=O)[C@@H](N)Cc2ccc(O)cc2)CC(=O)NC[C@@H](C(=O)N[C@@H](Cc2ccc(O)cc2)C(N)=O)NC(=O)[C@H](Cc2ccccc2)NC1=O [SEQ ID NO: 29, Tyr-c[Asp-Phe-DPhe-Arg-Trp-Asn-Ala-Phe-Dpr]-Tyr] (H-YDF[dF]RWNAF[Dap]Y-NH2; lactam 2-10)

- Kb (mMC3R): 1.26 nM
- Kb (mMC4R): 0.398 nM
- pharmacology in words at mMC4R (mMC4R): Partial agonist
SMILES: C[C@@H]1NC(=O)[C@H](CC(N)=O)NC(=O)[C@H](Cc2c[nH]c3ccccc23)NC(=O)[C@H](CCCNC(=N)N)NC(=O)[C@@H](Cc2ccc(I)cc2)NC(=O)[C@H](Cc2c[nH]cn2)NC(=O)[C@@H](NC(=O)[C@@H](N)Cc2ccc(O)cc2)CC(=O)NC[C@@H](C(=O)N[C@@H](Cc2ccc(O)cc2)C(N)=O)NC(=O)[C@H](Cc2ccccc2)NC1=O [SEQ ID NO: 32, Tyr-c[Asp-His-(pI)DPhe-Arg-Trp-Asn-Ala-Phe-Dpr]-Tyr]

- Kb (mMC3R): 5.01 nM
- Kb (mMC4R): 0.501 nM
- pharmacology in words at mMC4R (mMC4R): Partial agonist
SMILES: C[C@@H]1NC(=O)[C@H](CC(N)=O)NC(=O)[C@H](Cc2c[nH]c3ccccc23)NC(=O)[C@H](CCCNC(=N)N)NC(=O)[C@@H](Cc2ccc3ccccc3c2)NC(=O)[C@H](Cc2c[nH]cn2)NC(=O)[C@@H](NC(=O)[C@@H](N)Cc2ccc(O)cc2)CC(=O)NC[C@@H](C(=O)N[C@@H](Cc2ccc(O)cc2)C(N)=O)NC(=O)[C@H](Cc2ccccc2)NC1=O [SEQ ID NO: 33, Tyr-c[Asp-His-DNal(2′)-Arg-Trp-Asn-Ala-Phe-Dpr]-Tyr]

SMILES: C[C@@H]1NC(=O)[C@H](CC(N)=O)NC(=O)[C@H](Cc2c[nH]c3ccccc23)NC(=O)[C@H](CCCNC(=N)N)NC(=O)[C@@H](Cc2cccc3ccccc23)NC(=O)[C@H](Cc2c[nH]cn2)NC(=O)[C@@H](NC(=O)[C@@H](N)Cc2ccc(O)cc2)CC(=O)NC[C@@H](C(=O)N[C@@H](Cc2ccc(O)cc2)C(N)=O)NC(=O)[C@H](Cc2ccccc2)NC1=O [SEQ ID NO: 34, Tyr-c[Asp-His-DNal(1′)-Arg-Trp-Asn-Ala-Phe-Dpr]-Tyr]
- EC50 (mMC4R): 0.00057 ± 8e-05 µM

SMILES: C[C@@H]1NC(=O)[C@H](CC(N)=O)NC(=O)[C@H](Cc2c[nH]c3ccccc23)NC(=O)[C@H](CCCNC(=N)N)NC(=O)[C@@H](Cc2ccc(-c3ccccc3)cc2)NC(=O)[C@H](Cc2c[nH]cn2)NC(=O)[C@@H](NC(=O)[C@@H](N)Cc2ccc(O)cc2)CC(=O)NC[C@@H](C(=O)N[C@@H](Cc2ccc(O)cc2)C(N)=O)NC(=O)[C@H](Cc2ccccc2)NC1=O [SEQ ID NO: 35, Tyr-c[Asp-His-DBip-Arg-Trp-Asn-Ala-Phe-Dpr]-Tyr]
- EC50 (mMC4R): 0.00057 ± 7e-05 µM
